The data set is described as follows: LC50 of vanillin MEC formulation (pathogen not named). It is filed as in vivo. To be noted: ppm of Vanillin, applied as 15% MEC formulation; organism not given. An excerpt: The unit commonly used in the art to determine the effectiveness of the antipathogenic formulation is LC50. This number represents the concentration of formulation at which 50% of pathogens die.

One may read the LC50 as the concentration lethal to half of the exposed cells or organisms. High values mean lower toxicity, low ones greater toxicity.

`COc1cc(C=O)ccc1O` [Vanillin, 4-Hydroxy-3-Methoxybenzaldehyde] gave an LC50 of 66 ppm.

The values above are taken from US20100291247A1, “OIL FORMULATIONS AND METHODS OF USE” (priority 2007, published 2010).
